Data on 1 compound can be found in PMC6934184, “Selective DNA-PKcs inhibition extends the therapeutic index of localized radiotherapy and chemotherapy” (The Journal of Clinical Investigation, 2019).

In the test the target is T1, CLK2 (Homo sapiens, UniProt P49760).
T1 construct: purchased Thermo Fisher Scientific (Life Technologies) SelectScreen
Put plainly: SelectScreen Z'LYTE. Format: biochemical. The essentials:
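SelectScreen broad panel; activity (Z'LYTE, Adapta) plus binding formats. ATP: Km app for CSF1R Z'LYTE; 10 for CAMK1 Adapta. Readout = % per kinase.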

T1 sequence (P49760 whole entry): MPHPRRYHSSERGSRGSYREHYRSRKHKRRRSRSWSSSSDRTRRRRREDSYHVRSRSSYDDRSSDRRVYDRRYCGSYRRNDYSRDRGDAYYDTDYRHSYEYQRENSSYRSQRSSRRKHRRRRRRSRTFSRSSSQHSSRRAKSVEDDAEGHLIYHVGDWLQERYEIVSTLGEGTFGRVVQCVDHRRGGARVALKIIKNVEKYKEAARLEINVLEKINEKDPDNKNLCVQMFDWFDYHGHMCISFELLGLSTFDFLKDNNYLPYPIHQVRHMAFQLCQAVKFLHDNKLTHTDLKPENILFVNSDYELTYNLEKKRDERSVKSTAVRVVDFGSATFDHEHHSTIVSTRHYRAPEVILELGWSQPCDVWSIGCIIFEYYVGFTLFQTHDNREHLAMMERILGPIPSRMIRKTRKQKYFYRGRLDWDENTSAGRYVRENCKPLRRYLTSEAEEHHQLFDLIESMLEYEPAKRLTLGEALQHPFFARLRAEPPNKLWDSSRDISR

Usually inhibition stands for the change of the read-out against control, counted positive when it falls. A high value points to a response far below the control. `CN(C(=O)CN1CCOCC1)c1ccc2sc3c(-c4cccc5c(=O)cc(N6CC7CCC(C6)O7)oc45)cccc3c2c1` [NU5455] came in with an inhibition at 1 µM of 4.1%.
